In PMC11217349, “Development of Nurr1 agonists from amodiaquine by scaffold hopping and fragment growing” (Communications Chemistry, 2024):
Where “and” joins values, the source holds several entries; their conditions need not be identical. Identical values can stand only once. Like-named read-outs stand apart in the source and are kept apart here.

Key:
[1] = target: T1, human Nurr1 (hinge region and ligand binding domain) (Homo sapiens, UniProt P43354); experiment: Gal4-Nurr1 hybrid reporter gene assay; assay type: cell-based; conditions: for max. activation: maximum effect vs. 0.1% DMSO control; for highest non-toxic concentration: Gal4-Nurr1 hybrid reporter gene assay
T1 construct: expressed in transfected cells; host or cells: HEK293T
Protocol: Nurr1 modulation was determined in a Gal4 hybrid reporter gene assay in HEK293T cells (German Collection of Microorganisms and Cell Culture GmbH, DSMZ) using pFR-Luc (Stratagene, La Jolla, CA, USA; reporter), pRL-SV40 (Promega, Madison, WI, USA; internal control) and pFA-CMV-hNurr1-LBD[14], coding for the hinge region and ligand binding domain of the canonical isoform of human Nurr1. […] After 24 h, the medium was changed to Opti-MEM without supplements, and cells were transiently transfected using Lipofectamine LTX reagent (Invitrogen, Carlsbad, CA, USA) according to the manufacturer’s protocol. Five hours after transfection, cells were incubated with the test compounds in Opti-MEM supplemented with penicillin (100 U/mL), streptomycin (100 μg/mL), and 0.1% DMSO for 16 h before luciferase activity was measured using the Dual-Glo Luciferase Assay System (Promega) according to the manufacturer’s protocol on a Tecan Spark luminometer (Tecan Deutschland GmbH, Crailsheim, Germany). Firefly luminescence was divided by Renilla luminescence and multiplied by 1000 resulting in relative light units (RLU) to normalize for transfection efficiency and cell growth. Fold activation was obtained by dividing the mean RLU of the test compound by the mean RLU of the untreated control. All samples were tested in at least three biologically independent experiments in duplicates. For dose-response curve fitting and calculation of EC50 values, the equation “[Agonist] vs. response -- Variable slope (four parameters)” was used in GraphPad Prism (version 7.00, GraphPad Software, La Jolla, CA, USA). Selectivity profiling was performed with identical procedures using pFA-CMV-Nur77-LBD[14], pFA-CMV-NOR-1-LBD[14], pFA-CMV-THRα-LBD[51], pFA-CMV-RARα-LBD[52], pFA-CMV-PPARα-LBD[53], pFA-CMV-PPARγ-LBD[53], pFA-CMV-PPARδ-LBD[53], pFA-CMV-LXRα-LBD[54], pFA-CMV-FXR-LBD[55] and pFA-CMV-hRXRα-LBD[56].

Nurr1 LBD = target: T2, Nurr1 LBD (Homo sapiens, UniProt P43354); experiment: Isothermal titration calorimetry (ITC); assay type: binding; conditions: 25 °C
T2 construct: Nurr1 LBD protein (5–30 µM, expressed as described previously[21]); made in house
Protocol: ITC experiments were conducted on an Affinity ITC instrument (TA Instruments, New Castle, DE) at 25 °C with a stirring rate of 75 rpm. Nurr1 LBD protein (5–30 µM, expressed as described previously[21]) in buffer (20 mM Tris pH 7.5, 100 mM NaCl, 5% glycerol) containing 1–4% DMSO was titrated with the test compounds (30–150 μM in the same buffer containing 1-4% DMSO) in 26 injections (1 × 1 µL, 25 × 3-4 μL) with an injection interval of 120-150 s. As control experiments, the test compounds were titrated to the buffer, and the buffer was titrated to the Nurr1 LBD protein under otherwise identical conditions. Results were analyzed using NanoAnalyze software (version 3.11.0, TA Instruments, New Castle, DE) with independent binding models.

Microsomal stability = assay type: in vitro ADME, rat; conditions: incubation of 36 with rat liver microsomes, listed as 36-NH2
Protocol: To determine microsomal stability, test compounds (10 μM) were incubated in 100 mM potassium phosphate buffer at pH 7.4 (total volume of 100 µL) containing 0.5 mg/mL male rat liver microsomes (Sprague-Dawley, no. M9066, Merck KGaA, Darmstadt) and 1 mM NADPH for 0, 15, 30, or 60 min. At the end of the incubation time, microsomal activity was terminated by the addition of 500 µL MeCN and subsequent centrifugation at 1700 g for 5 min. A reaction mixture containing heat-inactivated microsomes (95 °C, 10 min) was prepared as a control for each compound. 5 µL supernatant of each sample was analyzed and the remaining concentrations of the respective test compounds at each time point were determined by LC-MS/MS on an API-3200-QTrap (Sciex) with an Agilent Technologies 1100 series setup including a binary pump (G1311A), a degasser (G1322A), and a Shimadzu SIL 20 A HT autosampler under the control of Analyst 1.6 (Sciex). A XBridge BEH C18 (3.5 µm, 150 mm×3 mm, Waters, protected with a 0.5 µm frit) stationary phase was used in combination with a gradient method starting with 0.1% formic acid in water (A) and MeCN (B) as mobile phase (A:B = 80:20) for 6 min going to A: B = 50:50 after 8 min. 5 µL of supernatant diluted in mobile phase starting conditions was loaded onto the column, separated at a flow rate of 400 µL/min, and detected and quantified per Area of MRM (multiple reaction monitoring) with the following transitions: m/z 381.797/145.000 (34); m/z 395.125/158.200 (36); m/z 409.822/131.000 (41); m/z 407.838/171.100 (42).

[2] = Parallel artificial membrane permeability assay (PAMPA); assay type: in vitro ADME; conditions: 500 µM donor, pH 7.4, 18 h
Protocol: Passive lipid membrane diffusion of test compounds was determined using Merck Millipore MultiScreen Filter Plates (0.45 μm pore diameter, hydrophobic PVDF). The filter inserts were coated with 1% L-α-phosphatidylcholine (Fluka Analytical) in n-dodecan. The test compounds were then added to the donor compartment at a final concentration of 500 µM in a phosphate buffer pH 7.4 containing 5% DMSO with a total volume of 150 µL. The acceptor compartment was filled with 300 µL PBS containing 5% DMSO. Additionally, three equilibrium samples were prepared by directly adding the donor solution to the acceptor compartment for the calculation of log Pe values. The filter plates were incubated for 18 h before the test compound concentrations in the acceptor compartments and in the equilibrium, samples were determined by UV absorbance at 320 nm (34), 360 nm (36), 310 nm (41), or 315 nm (42) with external calibration in a 96 well quartz plate on a SpectraMax M2e microplate reader (Molecular Devices). logPe values were calculated according to the formula published by Sugano and colleagues.

[3] = Table 2, Nurr1 agonism, read-out: pEC50 (converted)
[4] = Gal4-Nurr1 hybrid reporter, HEK293T, mean ± SD, n ≥ 3
[5] = Gal4-Nurr1 hybrid reporter, HEK293T, mean ± SD, n ≥ 3, read-out: EC50(Nurr1)

T2 sequence (P43354 360-595 limits assumed): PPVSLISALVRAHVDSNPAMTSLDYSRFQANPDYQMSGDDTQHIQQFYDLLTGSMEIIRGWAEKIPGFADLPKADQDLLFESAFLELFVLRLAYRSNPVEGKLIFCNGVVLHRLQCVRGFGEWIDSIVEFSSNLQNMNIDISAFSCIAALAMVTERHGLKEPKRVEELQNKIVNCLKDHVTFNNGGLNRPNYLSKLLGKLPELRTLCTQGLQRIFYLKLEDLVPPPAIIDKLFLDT
T1 sequence (P43354 360-595 limits assumed): as above

Row | SMILES | max. activation ([1]; mean ± SD, n ≥ 3) | EC50 [1, 5] | also measured
1 | CCN1CCN(c2cc(N3CCN(CC)CC3)nc(NCCNc3ccnc4cc(Cl)ccc34)n2)CC1 [Compound 1, reference compound] |  |  | EC50 [1, 3]: 20 µM
2 | Cc1cc(N)c2cccc(Cl)c2n1 [Compound 3, 8-chloro-2-methylquinolin-4-amine, reference compound] | 1.7 ± 0.1 fold |  | 
3 | O=C(Nc1ccnc2cc(Cl)ccc12)c1ccc(-c2ccc(Cl)cc2)o1 [Compound 4, reference compound] |  |  | EC50 [1, 3]: 15.8 µM
4 | Cc1[nH]c2c(Cl)cccc2c1N [Compound 6, 7-chloro-2-methyl-1H-indol-3-amine] |  |  | EC50(Nurr1) [1, 4]: unstable
5 | Cc1nc2cccc(Cl)c2[nH]1 [Compound 7, 4-Chloro-2-methyl-benzimidazole] |  |  | EC50(Nurr1) [1, 4]: inactive (100 µM)
6 | Cc1nc2c(Cl)cccn2c1N [Compound 8, 8-Chloro-2-methylimidazo[1,2-a]pyridine-3-amine] | 2.0 ± 0.1 fold | 7 ± 1 µM | Kd (Nurr1 LBD): 2.7 µM
7 | Cc1nc2cc(Cl)ccn2c1N [Compound 9] |  |  | EC50(Nurr1) [1, 4]: inactive (100 µM); Kd (Nurr1 LBD) (Nurr1 LBD): weak binding
8 | Nc1cnc2c(Cl)cccn12 [Compound 12, 3-Amino-8-chloroimidazo[1,2-a]pyridine] |  |  | Kd (Nurr1 LBD): 5.1 µM
9 | CC(C)c1nc2c(Cl)cccn2c1N [Compound 14] | < 1.2-fold act. |  | 
10 | Nc1c(-c2ccccc2)nc2c(Cl)cccn12 [Compound 15] | 1.4 ± 0.1 fold | 4 ± 2 µM | 
11 | Nc1c(-c2ccco2)nc2c(Cl)cccn12 [Compound 16] | < 1.2-fold act. |  | 
12 | Nc1c(-c2ccc(Cl)cc2)nc2c(Cl)cccn12 [Compound 17] | 1.7 ± 0.2 fold | 15 ± 3 µM | 
13 | Nc1c(-c2cccc(Cl)c2)nc2c(Cl)cccn12 [Compound 18] | 1.7 ± 0.1 fold | 9 ± 3 µM | 
14 | Nc1c(-c2ccccc2Cl)nc2c(Cl)cccn12 [Compound 19] |  |  | EC50(Nurr1) [1, 4]: inactive (100 µM)
15 | Cc1ccc(-c2nc3c(Cl)cccn3c2N)cc1 [Compound 20] | 2.0 ± 0.2 fold | 12 ± 2 µM | 
16 | Cc1cccc(-c2nc3c(Cl)cccn3c2N)c1 [Compound 21] | < 1.2-fold act. |  | 
17 | Nc1c(-c2ccc(C(F)(F)F)cc2)nc2c(Cl)cccn12 [Compound 22] | < 1.2-fold act. |  | 

Row | SMILES | max. activation ([1]; mean ± SD, n ≥ 3) | EC50 [1, 5] | also measured
18 | Nc1c(-c2cccc(C(F)(F)F)c2)nc2c(Cl)cccn12 [Compound 23] | < 1.2-fold act. |  | 
19 | Nc1c(-c2ccc(Cl)c(Cl)c2)nc2c(Cl)cccn12 [Compound 24, 8-Chloro-2-(3,4-dichlorophenyl)imidazo[1,2-a]pyridine-3-amine] | 1.8 fold and 1.8±0.1 fold |  | EC50 [1, 3]: 0.398 µM; Kd (Nurr1 LBD): 0.7 µM
20 | Cc1ccc(-c2nc3c(Cl)cccn3c2N)cc1C [Compound 25] | 1.6 ± 0.1 fold | 14 ± 2 µM | 
21 | Cc1nc2c(Cl)cccn2c1NC(=O)c1ccc(-c2ccc(Cl)cc2)o1 [Compound 26] | 1.8 ± 0.1 fold | 1.6 ± 0.5 µM | Kd (Nurr1 LBD): 0.7 µM
22 | Cc1nc2c(Cl)cccn2c1NC(=O)c1ccc(-c2ccccc2)o1 [Compound 27] | 2.1 ± 0.1 fold | 4 ± 1 µM | 
23 | Cc1nc2c(Cl)cccn2c1NC(=O)c1ccc(-c2ccccc2)s1 [Compound 28] | 2.1 ± 0.1 fold | 3.2 ± 0.4 µM | 
24 | Cc1nc2c(Cl)cccn2c1NC(=O)c1ccc(-c2ccccc2)cc1 [Compound 30] |  |  | highest non-toxic concentration ([1]; HEK293T): inactive (10 µM^b); EC50(Nurr1) [1, 4]: inactive (10 µM^b)
25 | Cc1nc2c(Cl)cccn2c1NC(=O)c1ccc(-c2ccc(C(F)(F)F)cc2)o1 [Compound 31] | 1.8 ± 0.1 fold | 1.1 ± 0.3 µM | 
26 | Cc1ccc(-c2ccc(C(=O)Nc3c(C)nc4c(Cl)cccn34)o2)cc1 [Compound 32] | 2.0 ± 0.2 fold | 0.13 ± 0.02 µM | 
27 | Cc1nc2c(Cl)cccn2c1NC(=O)c1ccc(-c2ccc(OC(F)(F)F)cc2)o1 [Compound 33] | 2.0 ± 0.1 fold | 0.8 ± 0.2 µM | 
28 | CNc1ccc(-c2ccc(C(=O)Nc3c(C)nc4c(Cl)cccn34)o2)cc1 [Compound 35] | 1.8 ± 0.1 fold | 0.3 ± 0.02 µM | 
29 | CN(C)c1ccc(-c2ccc(C(=O)Nc3c(-c4ccc(Cl)c(Cl)c4)nc4c(Cl)cccn34)o2)cc1 [Compound 37, N-(8-Chloro-2-(3,4-dichlorophenyl)imidazo[1,2-a]pyridin-3-yl)-5-(4-(dimethylamino)phenyl)furan-2-carboxamidearboxamide] | 1.53±0.04 fold | 0.04 ± 0.01 µM | Kd (Nurr1 LBD): 0.08 µM
30 | Cc1nc2c(Cl)cccn2c1NC(=O)c1ccc(-c2ccc(N)cc2)o1 [Compound 38] | <1.2-fold activation |  | AUC x10^5 (LC-MS peak area of 36 and its demethylated metabolites) (Microsomal stability; time 0 min): 0.0604 x10^5 and 0.0553 x10^5 and 0.0561 x10^5 and 0.0573 x10^5; AUC x10^5 (LC-MS peak area of 36 and its demethylated metabolites) (Microsomal stability; time 15 min): 1.99 x10^5 and 2.08 x10^5 and 1.81 x10^5 and 1.95 x10^5; AUC x10^5 (LC-MS peak area of 36 and its demethylated metabolites) (Microsomal stability; time 60 min): 4.34 x10^5 and 4.54 x10^5 and 4 x10^5 and 5.57 x10^5
31 | Cc1nc2c(Cl)cccn2c1NC(=O)c1ccc(-c2ccc(N3CCOCC3)cc2)o1 [Compound 39] |  |  | highest non-toxic concentration ([1]; HEK293T): inactive (10 µM^c); EC50(Nurr1) [1, 4]: inactive (10 µM^c)
32 | Cc1nc2c(Cl)cccn2c1NC(=O)c1ccc(-c2ccc(N3CCN(C)CC3)cc2)o1 [Compound 40] |  |  | highest non-toxic concentration ([1]; HEK293T): inactive (10 µM^d); EC50(Nurr1) [1, 4]: inactive (10 µM^d)
33 | CC(C)NCC(O)COc1cccc2ccccc12 (centres unmarked) [propranolol, reference compound] |  |  | logPe (PAMPA) [2]: -5.096 and -5.109 and -5.101 and -5.087 and -5.042 and -5.07
